Measurements from patent publication US20240252488A1 (KOREA RESEARCH INSTITUTE OF CHEMICAL TECHNOLOGY, priority 2020, published 2024).

Assays:
MLKL [1] = molecular target: T1, MLKL (Homo sapiens, UniProt Q8NB16); test: MLKL degradation assay in HepG2 cell line (western blot); assay type: cell-based; design: endogenous in cells; host or cells: HepG2 or HaCaT; conditions: cell line not given; for Degradation assay (Degradation %) 1 μM: compound 1 μM; for Degradation assay (Degradation %) 10 μM: compound 10 μM
T1 sequence (Q8NB16 1-471): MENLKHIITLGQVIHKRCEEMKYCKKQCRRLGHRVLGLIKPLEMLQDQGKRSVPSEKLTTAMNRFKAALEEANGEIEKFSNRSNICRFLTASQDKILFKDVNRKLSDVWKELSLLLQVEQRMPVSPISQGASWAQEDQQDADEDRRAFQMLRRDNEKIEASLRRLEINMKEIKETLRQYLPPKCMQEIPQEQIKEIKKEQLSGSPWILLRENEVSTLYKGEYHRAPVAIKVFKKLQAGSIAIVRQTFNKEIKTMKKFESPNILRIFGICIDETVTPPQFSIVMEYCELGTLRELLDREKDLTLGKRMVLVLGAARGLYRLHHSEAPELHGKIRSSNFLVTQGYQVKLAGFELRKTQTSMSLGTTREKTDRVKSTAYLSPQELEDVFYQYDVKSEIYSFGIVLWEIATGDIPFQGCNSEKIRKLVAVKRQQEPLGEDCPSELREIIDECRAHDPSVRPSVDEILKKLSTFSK
How it was run: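 After treating HepG2 with test compounds (final 1 μM or 10 μM) for 20-24 h, we lysed cells, equalized protein by BCA and probed MLKL by overnight primary antibody at 4 °C followed by chemiluminescent detection.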

FADD−/− Jurkat cells = test: Necroptosis inhibition assay, TNF-α-induced necroptosis (CellTiter-Glo 2.0); assay type: cell-based, human; conditions: TNF-α 15 ng/mL, FADD−/− Jurkat cells; for Necroptosis inhibition assay (Rescue %) 1 μM: compound 1 μM; for Necroptosis inhibition assay (Rescue %) 10 μM: compound 10 μM
How it was run: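 Necroptosis was triggered by TNF-α at 15 ng/mL final following 30 minutes of compound exposure (0.1, 1 or 10 μM final). Incubation ran 20 to 24 hours at 37° C under 5% CO2; cell ATP was then quantified by luminescence.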

MLKL [2] = molecular target: T1, MLKL; test: Measurement of binding affinity with MLKL receptor (competitive binding assay, Kd); design: made in house; host or cells: HEK 293 cell line (T7 phage in E. coli BL21-derived host is also described)
How it was run: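 Competitive displacement of MLKL, expressed in HEK 293 cells and DNA-tagged for qPCR, from immobilized ligand on biotin-blocked beads. Compounds were added from 111× DMSO stocks (final DMSO 0.9%). Kinase left in the eluates was quantified by qPCR to give Kd.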

Structure (SMILES)	Degradation assay (Degradation %) 1 μM (MLKL [1]) [%]	Degradation assay (Degradation %) 10 μM (MLKL [1]) [%]	Necroptosis inhibition assay (Rescue %) 1 μM (FADD−/− Jurkat cells) [%]	Necroptosis inhibition assay (Rescue %) 10 μM (FADD−/− Jurkat cells) [%]	Kd (MLKL [2]) [nM]
Nc1ncc(-c2cnn(C3CCN(C(=O)CCC4CCN(C(=O)C5CCN(c6cccc7nnn(C8CCC(=O)NC8=O)c(=O)c67)CC5)CC4)CC3)c2)nc1C(=O)O[C@@H](C(=O)Nc1ccc(F)cc1)c1ccccc1 (stereo partly drawn) [TDH-435, (R)-2-((4-fluorophenyl)amino)-2-oxo-1-phenylethyl 3-amino-6-(1-(1-(3-(1-(1-(3-(2,6-dioxopiperidin-3-yl)-4-oxo-3,4-dihydrobenzo[d][1,2,3]triazin-5-yl)piperidine-4-carbonyl)piperidin-4-yl)propanoyl)piperidin-4-yl)-1H-pyrazol-4-yl)pyrazine-2-carboxylate]	79.73	64.92	18.26	11.49	1.8
Nc1ncc(-c2cnn(C3CCN(C(=O)CCC4CCN(C(=O)C5CCN(c6ccc7nnn(C8CCC(=O)NC8=O)c(=O)c7c6)CC5)CC4)CC3)c2)nc1C(=O)O[C@@H](C(=O)Nc1ccc(F)cc1)c1ccccc1 (stereo partly drawn) [TDH-436, (R)-2-((4-fluorophenyl)amino)-2-oxo-1-phenylethyl 3-amino-6-(1-(1-(3-(1-(1-(3-(2,6-dioxopiperidin-3-yl)-4-oxo-3,4-dihydrobenzo[d][1,2,3]triazin-6-yl)piperidine-4-carbonyl)piperidin-4-yl)propanoyl)piperidin-4-yl)-1H-pyrazol-4-yl)pyrazine-2-carboxylate]	85.98	71.25	41.81	21.38	3.1
Nc1ncc(-c2cnn(C3CCN(C(=O)CCC4CCN(C(=O)COc5ccc6nnn(C7CCC(=O)NC7=O)c(=O)c6c5)CC4)CC3)c2)nc1C(=O)O[C@@H](C(=O)Nc1ccc(F)cc1)c1ccccc1 (stereo partly drawn) [TDH-437, (R)-2-((4-fluorophenyl)amino)-2-oxo-1-phenylethyl 3-amino-6-(1-(1-(3-(1-(2-((3-(2,6-dioxopiperidin-3-yl)-4-oxo-3,4-dihydrobenzo[d][1,2,3]triazin-6-yl)oxy)acetyl)piperidin-4-yl)propanoyl)piperidin-4-yl)-1H-pyrazol-4-yl)pyrazine-2-carboxylate]	87.34	79.50	42.82	23.20	1.3
Nc1ncc(-c2cnn(C3CCN(C(=O)CCC4CCN(C(=O)C5CN(c6ccc7nnn(C8CCC(=O)NC8=O)c(=O)c7c6)C5)CC4)CC3)c2)nc1C(=O)O[C@@H](C(=O)Nc1ccc(F)cc1)c1ccccc1 (stereo partly drawn) [TDH-438, (R)-2-((4-fluorophenyl)amino)-2-oxo-1-phenylethyl 3-amino-6-(1-(1-(3-(1-(1-(3-(2,6-dioxopiperidin-3-yl)-4-oxo-3,4-dihydrobenzo[d][1,2,3]triazin-6-yl)azetidine-3-carbonyl)piperidin-4-yl)propanoyl)piperidin-4-yl)-1H-pyrazol-4-yl)pyrazine-2-carboxylate]	86.72	78.91	26.37	13.48	4.5
Nc1ncc(-c2cnn(C3CCN(C(=O)CCC4CCN(C(=O)CCc5cccc6c5CN(C5CCC(=O)NC5=O)C6=O)CC4)CC3)c2)nc1C(=O)O[C@@H](C(=O)Nc1ccc(F)cc1)c1ccccc1 (stereo partly drawn) [TDH-439, (R)-2-((4-fluorophenyl)amino)-2-oxo-1-phenylethyl 3-amino-6-(1-(1-(3-(1-(3-(2-(2,6-dioxopiperidin-3-yl)-1-oxoisoindolin-4-yl)propanoyl)piperidin-4-yl)propanoyl)piperidin-4-yl)-1H-pyrazol-4-yl)pyrazine-2-carboxylate]	86.02	91.86	41.96	43.64	0.91
Nc1ncc(-c2cnn(C3CCN(CCCN4CCN(CC5CCN(C(=O)COc6ccc7c(c6)C(=O)N(C6CCC(=O)NC6=O)C7=O)CC5)CC4)CC3)c2)nc1C(=O)O[C@@H](C(=O)Nc1ccc(F)cc1)c1ccccc1 (stereo partly drawn) [TDH-440, (R)-2-((4-fluorophenyl)amino)-2-oxo-1-phenylethyl 3-amino-6-(1-(1-(3-(4-((1-(2-((2-(2,6-dioxopiperidin-3-yl)-1,3-dioxoisoindolin-5-yl)oxy)acetyl)piperidin-4-yl)methyl)piperazin-1-yl)propyl)piperidin-4-yl)-1H-pyrazol-4-yl)pyrazine-2-carboxylate]	81.51	84.75	65.67	24.42	0.51
Nc1ncc(-c2cnn(C3CCN(CCCN4CCN(CC5CCN(C(=O)CNc6ccc7c(c6)C(=O)N(C6CCC(=O)NC6=O)C7=O)CC5)CC4)CC3)c2)nc1C(=O)O[C@@H](C(=O)Nc1ccc(F)cc1)c1ccccc1 (stereo partly drawn) [TDH-441, (R)-2-((4-fluorophenyl)amino)-2-oxo-1-phenylethyl 3-amino-6-(1-(1-(3-(4-((1-((2-(2,6-dioxopiperidin-3-yl)-1,3-dioxoisoindolin-5-yl)glycyl)piperidin-4-yl)methyl)piperazin-1-yl)propyl)piperidin-4-yl)-1H-pyrazol-4-yl)pyrazine-2-carboxylate]	87.59	87.7	71.58	−15.73	0.69
Nc1ncc(-c2cnn(C3CCN(C4CC5(CCN(CC6CCN(C(=O)COc7ccc8c(c7)C(=O)N(C7CCC(=O)NC7=O)C8=O)CC6)CC5)C4)CC3)c2)nc1C(=O)O[C@@H](C(=O)Nc1ccc(F)cc1)c1ccccc1 (stereo partly drawn) [TDH-442, (R)-2-((4-fluorophenyl)amino)-2-oxo-1-phenylethyl 3-amino-6-(1-(1-(7-((1-(2-((2-(2,6-dioxopiperidin-3-yl)-1,3-dioxoisoindolin-5-yl)oxy)acetyl)piperidin-4-yl)methyl)-7-azaspiro[3.5]nonan-2-yl)piperidin-4-yl)-1H-pyrazol-4-yl)pyrazine-2-carboxylate]	80.37	87.27	58.16	21.7	0.53
Nc1ncc(-c2cnn(C3CCN(C4CC5(CCN(CC6CCN(C(=O)CNc7ccc8c(c7)C(=O)N(C7CCC(=O)NC7=O)C8=O)CC6)CC5)C4)CC3)c2)nc1C(=O)O[C@@H](C(=O)Nc1ccc(F)cc1)c1ccccc1 (stereo partly drawn) [TDH-443, (R)-2-((4-fluorophenyl)amino)-2-oxo-1-phenylethyl 3-amino-6-(1-(1-(7-((1-((2-(2,6-dioxopiperidin-3-yl)-1,3-dioxoisoindolin-5-yl)glycyl)piperidin-4-yl)methyl)-7-azaspiro[3.5]nonan-2-yl)piperidin-4-yl)-1H-pyrazol-4-yl)pyrazine-2-carboxylate]	84.23	86.93	59.05	−65.46	0.52
COc1ccc(C(=O)N2CCC(CN3CCC(n4cc(-c5cnc(N)c(C(=O)O[C@@H](C(=O)Nc6ccc(F)cc6)c6ccccc6)n5)cn4)CC3)CC2)cc1N1CCC(=O)NC1=O [TDH-445, (R)-2-((4-fluorophenyl)amino)-2-oxo-1-phenylethyl 3-amino-6-(1-(1-((1-(3-(2,4-dioxotetrahydropyrimidin-1(2H)-yl)-4-methoxybenzoyl)piperidin-4-yl)methyl)piperidin-4-yl)-1H-pyrazol-4-yl)pyrazine-2-carboxylate]	20.29	27.38	12.07	19.83	0.6
COc1ccc(C(=O)N2CCC(CCN3CCC(n4cc(-c5cnc(N)c(C(=O)O[C@@H](C(=O)Nc6ccc(F)cc6)c6ccccc6)n5)cn4)CC3)CC2)cc1N1CCC(=O)NC1=O [TDH-446, (R)-2-((4-fluorophenyl)amino)-2-oxo-1-phenylethyl 3-amino-6-(1-(1-(2-(1-(3-(2,4-dioxotetrahydropyrimidin-1(2H)-yl)-4-methoxybenzoyl)piperidin-4-yl)ethyl)piperidin-4-yl)-1H-pyrazol-4-yl)pyrazine-2-carboxylate]	57.4	17.94	34.93	8.47	0.22
